Measured values taken from US10227323B2, “Glucosylceramide synthase inhibitors for the treatment of diseases” (BIOMARIN PHARMACEUTICAL INC., priority 2013, dated 2019).

biological target: T1, GCS (Canis lupus familiaris, UniProt A0A8I3MXG6); experiment: Assay 1: GCS Enzymatic Assay (MDCK cell lysate, C6-NBD-Ceramide, LC/MS); format: biochemical, canine; conditions: Table 2; data marked by *
T1 sequence (A0A8I3MXG6 1-394): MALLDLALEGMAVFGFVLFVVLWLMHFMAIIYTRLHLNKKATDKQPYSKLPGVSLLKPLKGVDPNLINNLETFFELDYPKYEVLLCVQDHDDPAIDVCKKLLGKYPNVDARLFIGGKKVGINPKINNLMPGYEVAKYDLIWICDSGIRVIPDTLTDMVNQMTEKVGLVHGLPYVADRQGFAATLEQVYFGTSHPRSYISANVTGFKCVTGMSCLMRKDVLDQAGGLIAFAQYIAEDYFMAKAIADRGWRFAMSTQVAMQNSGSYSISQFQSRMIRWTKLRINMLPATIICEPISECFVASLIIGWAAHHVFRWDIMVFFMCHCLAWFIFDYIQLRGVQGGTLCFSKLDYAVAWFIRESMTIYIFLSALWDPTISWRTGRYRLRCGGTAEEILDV
Method in brief: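 LC/MS/MS measurement of glucosylceramide and NBD-ceramide after a 1 h, 37 °C reaction with 100 μM UDP-glucose and 10 μM C6-NBD-ceramide gave IC50s or percent inhibition.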

Question: With `O=C(N[C@H](CN1CCCC1)[C@H](O)c1ccc(OC2CC2)c(Cl)c1)C(F)(F)c1cccc(Oc2ccc(F)cc2)c1` [Compound 206, N-((1R,2R)-1-(3-chloro-4-cyclopropoxyphenyl)-1-hydroxy-3-(pyrrolidin-1-yl)propan-2-yl)-2,2-difluoro-2-(3-(4-fluorophenoxy)phenyl)acetamide] as the molecule, how does the “% inhibition generated from Assay 1” value read?
Answer: Its value is “A* (the compound had a % inhibition of a percent inhibition of greater than or equal to about 50%)”.

Question: With `O=C(N[C@H](CN1CCCC1)[C@H](O)c1ccc2c(c1)OCCO2)C(F)(F)c1csc(-c2ccc(F)cc2)n1` [Compound 211, N-((1R,2R)-1-(2,3-dihydrobenzo[b][1,4]dioxin-6-yl)-1-hydroxy-3-(pyrrolidin-1-yl)propan-2-yl)-2,2-difluoro-2-(2-(4-fluorophenyl)thiazol-4-yl)acetamide] as the molecule, how does the “% inhibition generated from Assay 1” value read?
Answer: The value was “B* (the compound had a % inhibition of greater than or equal to about 3% but less than about 50%)”.

Question: How did the “% inhibition generated from Assay 1” value turn out when `O=C(N[C@H](CN1CCCC1)[C@H](O)c1ccc(OC2CC2)c(Cl)c1)C(F)(F)c1csc(-c2ccc(F)cc2)n1` [Compound 213, N-((1R,2R)-1-(3-chloro-4-cyclopropoxyphenyl)-1-hydroxy-3-(pyrrolidin-1-yl)propan-2-yl)-2,2-difluoro-2-(2-(4-fluorophenyl)thiazol-4-yl)acetamide] was run?
Answer: The value was “B* (the compound had a % inhibition of greater than or equal to about 3% but less than about 50%)”.

Question: How did the “% inhibition generated from Assay 1” value turn out when `O=C(N[C@H](CN1CCCC1)[C@H](O)c1ccc(OC2CC2)c(Cl)c1)C(=O)c1cnc(-c2ccc(F)cc2)s1` [Compound 215, N-((1R,2R)-1-(3-chloro-4-cyclopropoxyphenyl)-1-hydroxy-3-(pyrrolidin-1-yl)propan-2-yl)-2-(2-(4-fluorophenyl)thiazol-5-yl)-2-oxoacetamide] was run?
Answer: Its value is “B* (the compound had a % inhibition of greater than or equal to about 3% but less than about 50%)”.

Question: How did the “% inhibition generated from Assay 1” value turn out when `O=C(N[C@H](CN1CCCC1)[C@H](O)c1ccc(OC2CC2)c(Cl)c1)C(F)(F)c1ccc(-c2ccc(F)cc2)s1` [Compound 218, N-((1R,2R)-1-(3-chloro-4-cyclopropoxyphenyl)-1-hydroxy-3-(pyrrolidin-1-yl)propan-2-yl)-2,2-difluoro-2-(5-(4-fluorophenyl)thiophen-2-yl)acetamide] was run?
Answer: The value was “B* (the compound had a % inhibition of greater than or equal to about 3% but less than about 50%)”.

Question: Which “% inhibition generated from Assay 1” value does the source give for `O=C(N[C@H](CN1CCCC1)[C@H](O)c1ccc(OC2CC2)c(Cl)c1)C(=O)c1ccc(-c2ccc(F)cc2)s1` [Compound 219, N-((1R,2R)-1-(3-chloro-4-cyclopropoxyphenyl)-1-hydroxy-3-(pyrrolidin-1-yl)propan-2-yl)-2-(5-(4-fluorophenyl)thiophen-2-yl)-2-oxoacetamide] here?
Answer: Its value is “A* (the compound had a % inhibition of a percent inhibition of greater than or equal to about 50%)”.

same assay, conditions: Table 2; data without asterisk; read-out: IC50 (nM) generated from Assay 1

Question: How did the IC50 turn out when `Cn1ncc2cc(-c3ccc(C(F)(F)C(=O)N[C@H](CN4CCCC4)[C@H](O)c4ccc(OC5CC5)c(Cl)c4)cc3)ccc21` [Compound 202, N-((1R,2R)-1-(3-chloro-4-cyclopropoxyphenyl)-1-hydroxy-3-(pyrrolidin-1-yl)propan-2-yl)-2,2-difluoro-2-(4-(1-methyl-1H-indazol-5-yl)phenyl)acetamide] was run?
Answer: Its IC50 is less than 50 nM.

Question: `O=C(N[C@H](CN1CCCC1)[C@H](O)c1cc(F)c2c(c1)OCCO2)C(=O)c1cccc(Oc2ccc(F)cc2)c1` [Compound 203, N-((1R,2R)-1-(8-fluoro-2,3-dihydrobenzo[b][1,4]dioxin-6-yl)-1-hydroxy-3-(pyrrolidin-1-yl)propan-2-yl)-2-(3-(4-fluorophenoxy)phenyl)-2-oxoacetamide] was tested. Which IC50 did it give?
Answer: The IC50 was less than 50 nM.

Question: With `O=C(N[C@H](CN1CCCC1)[C@H](O)c1ccc(OC2CC2)c(F)c1)C(F)(F)c1ccc(-c2ccc(F)cc2)cc1` [Compound 204, N-((1R,2R)-1-(4-cyclopropoxy-3-fluorophenyl)-1-hydroxy-3-(pyrrolidin-1-yl)propan-2-yl)-2,2-difluoro-2-(4′-fluoro-[1,1′-biphenyl]-4-yl)acetamide] as the molecule, how does the IC50 read?
Answer: The IC50 was less than 50 nM.

Question: How did the IC50 turn out when `Cn1ncc2cc(-c3ccc(C(=O)C(=O)N[C@H](CN4CCCC4)[C@H](O)c4ccc(OC5CC5)c(Cl)c4)cc3)ccc21` [Compound 205, N-((1R,2R)-1-(3-chloro-4-cyclopropoxyphenyl)-1-hydroxy-3-(pyrrolidin-1-yl)propan-2-yl)-2-(4-(1-methyl-1H-indazol-5-yl)phenyl)-2-oxoacetamide] was run?
Answer: Its IC50 is less than 50 nM.

Question: Which IC50 does the source give for `Cn1ncc2cc(-c3ccc(C(=O)C(=O)N[C@H](CN4CCCC4)[C@H](O)c4ccc5c(c4)OCCO5)cc3)ccc21` [Compound 207, N-((1R,2R)-1-(2,3-dihydrobenzo[b][1,4]dioxin-6-yl)-1-hydroxy-3-(pyrrolidin-1-yl)propan-2-yl)-2-(4-(1-methyl-1H-indazol-5-yl)phenyl)-2-oxoacetamide] here?
Answer: Its IC50 is less than 50 nM.

Question: Which IC50 does the source give for `O=C(N[C@H](CN1CCCC1)[C@H](O)c1ccc(OC2CC2)c(F)c1)C(=O)c1ccc(-c2ccc(F)cc2)cc1` [Compound 208, N-((1R,2R)-1-(4-cyclopropoxy-3-fluorophenyl)-1-hydroxy-3-(pyrrolidin-1-yl)propan-2-yl)-2-(4′-fluoro-[1,1′-biphenyl]-4-yl)-2-oxoacetamide] here?
Answer: The IC50 was less than 50 nM.

Question: How did the IC50 turn out when `O=C(N[C@H](CN1CCCC1)[C@H](O)c1ccc(OC2CC2)c(Cl)c1)C(=O)c1ccc2ccccc2c1` [Compound 209, N-((1R,2R)-1-(3-chloro-4-cyclopropoxyphenyl)-1-hydroxy-3-(pyrrolidin-1-yl)propan-2-yl)-2-(naphthalen-2-yl)-2-oxoacetamide] was run?
Answer: Its IC50 is less than 50 nM.

Question: With `O=C(N[C@H](CN1CCCC1)[C@H](O)c1cc(F)c2c(c1)OCCO2)C(F)(F)c1cccc(Oc2ccc(F)cc2)c1` [Compound 210, 2,2-difluoro-N-((1R,2R)-1-(8-fluoro-2,3-dihydrobenzo[b][1,4]dioxin-6-yl)-1-hydroxy-3-(pyrrolidin-1-yl)propan-2-yl)-2-(3-(4-fluorophenoxy)phenyl)acetamide] as the molecule, how does the IC50 read?
Answer: Its IC50 is less than 50 nM.

Question: How did the IC50 turn out when `Cn1ncc2cc(-c3ccc(C(F)(F)C(=O)N[C@H](CN4CCCC4)[C@H](O)c4ccc5c(c4)OCCO5)cc3)ccc21` [Compound 212, N-((1R,2R)-1-(2,3-dihydrobenzo[b][1,4]dioxin-6-yl)-1-hydroxy-3-(pyrrolidin-1-yl)propan-2-yl)-2,2-difluoro-2-(4-(1-methyl-1H-indazol-5-yl)phenyl)acetamide] was run?
Answer: Its IC50 is less than 50 nM.

Question: For `O=C(N[C@H](CN1CCCC1)[C@H](O)c1ccc(OC2CC2)c(Cl)c1)C(=O)c1ccc(-c2ccccn2)cc1` [Compound 214, N-((1R,2R)-1-(3-chloro-4-cyclopropoxyphenyl)-1-hydroxy-3-(pyrrolidin-1-yl)propan-2-yl)-2-oxo-2-(4-(pyridin-2-yl)phenyl)acetamide], which IC50 is on record?
Answer: The IC50 was less than 50 nM.

Question: How did the IC50 turn out when `Cn1ncc2cc(C(=O)C(=O)N[C@H](CN3CCCC3)[C@H](O)c3ccc4c(c3)OCCO4)ccc21` [Compound 216, N-((1R,2R)-1-(2,3-dihydrobenzo[b][1,4]dioxin-6-yl)-1-hydroxy-3-(pyrrolidin-1-yl)propan-2-yl)-2-(1-methyl-1H-indazol-5-yl)-2-oxoacetamide] was run?
Answer: Its IC50 is less than 50 nM.

Question: `Cn1ncc2cc(C(=O)C(=O)N[C@H](CN3CCCC3)[C@H](O)c3cc(F)c4c(c3)OCCO4)ccc21` [Compound 217, N-((1R,2R)-1-(8-fluoro-2,3-dihydrobenzo[b][1,4]dioxin-6-yl)-1-hydroxy-3-(pyrrolidin-1-yl)propan-2-yl)-2-(1-methyl-1H-indazol-5-yl)-2-oxoacetamide] was tested. Which IC50 did it give?
Answer: The IC50 was less than 50 nM.
